The test system of data set [1] is fish sperm DNA. In words: Circular dichroism / UV-vis titration with fish sperm DNA (multiple independent binding sites model). Particulars: Table S1; buffer 25 mM MOPS, 50 mM NaCl, 1 mM EDTA, 25 °C; n restricted to 3 base pairs. On the procedure:
In view of the nuclear localisation of Ir-CMYC, we also considered the potential role that affinity to DNA may play. To explore DNA binding of these Ir(III) complexes, UV-vis and circular dichroism titrations were carried out in buffer (25 mM MOPS, 50 mM NaCl, 1 mM EDTA) at 25 °C (Fig. S6, ESI ^†). To quantify the affinity of Ir-PYR for fish sperm DNA, titration curves at 400 and 493 nm were extracted from the circular dichroism data (Fig. 6). Similarly, for Ir-CMYC, titration curves at 373 and 493 nm were extracted from the circular dichroism data. The binding data were analysed globally (Table S1 ^†) in terms of the multiple independent binding sites model, explicitly taking into account the dilution of the iridium complex during the titration.[28] […]
MOPS buffer was prepared by dissolving MOPS (3-(N-morpholino)propanesulfonic acid, CAS[1132-61-2]), NaCl, and EDTA (ethylenediaminetetraacetic acid disodium salt dihydrate, CAS[6381-92-6]) (all obtained from Fisher and used as supplied) in deionised water (Elga Purelab Flex), adjusting the pH to 7.0 using a NaOH solution (pH of the buffer was determined using a Hanna Instruments pH210 microprocessor pH meter with a VWR simple junction universal combined pH/reference electrode) and making up the solution to 0.5 litre. […]
A general note: Circular dichroism is widely used to follow secondary structure.

Data set [2] deals with Human fibroblasts. In words: Resazurin cell viability / metabolic activity assay. It counts as cell-based. On the procedure:
Fig. 3 Ir-PYR is cytotoxic at 20 μM and above. Human fibroblasts were incubated with various concentrations (0 or DMSO only, 5, 20, 50, 80, 100 μM) of either Ir-CMYC (A) or Ir-PYR (B) for 18 hours. Resazurin was added to cells, and after a 4 hour incubation the relative fluorescence intensity was measured (λex = 530 nm; λem = 580 nm). Ir-PYR treated cells (>20 μM) show reduced conversion of resazurin to the fluorescent resorufin indicating reduced cell viability.
Human derived skin fibroblast cells lines were obtained from the Coriell Cell Repository (GM05399, Camden, NJ). […]
Human fibroblasts were plated at 10 000 cells per well of a 96-well plate (Cellbind) and treated with the indicated concentrations of Ir-PYR, Ir-CMYC or DMSO. […] After a 4 hour incubation at 37 °C, fluorescence was determined using a Molecular Devices Spectramax Gemini EM plate reader (λex = […]; λem = 585 nm).
Human fibroblasts were plated at 10 000 cells per well of a 96-well plate and treated with the various concentrations of Ir-PYR, Ir-CMYC (5, 20, 80, 50, 100 μM) or the highest volume of equivalent of DMSO only. […] After a 4 hour incubation at 37 °C, fluorescence was determined using a Molecular Devices Spectramax Gemini EM plate reader (λex = 530 nm; λem = 580 nm).
A general note: Alamar Blue is a resazurin reagent that responds to reducing activity.

Data set [3] deals with human fibroblast cells. In words: Confocal fluorescence microscopy: cell uptake and localisation. Particulars: human fibroblasts. It is filed as cell-based. Here is the method: The non-peptide functionalised complex Ir-PYR was investigated at a range of concentrations (1, 5, 20, 50, 80, 100 μM) with respect to cell uptake, localization and bioimaging capability. Human fibroblast cells were incubated with the different concentration solutions of Ir-PYR and imaged after 18 hours using confocal fluorescence microscopy. With long wavelength excitation and emission parameters (λex = 480 nm; λem = 645 nm) compatible with the spectral properties of the complex, it was clearly evident (Fig. 2) that the deep red emission of Ir-PYR was highly amenable to confocal fluorescence microscopy.
Human derived skin fibroblast cells lines were obtained from the Coriell Cell Repository (GM05399, Camden, NJ). Cells were cultured as monolayers in Dulbecco's modified Eagles medium (DMEM, Sigma, UK) supplemented with 10% fetal bovine serum (FBS, PAN-Biotech, Aidenbach, Germany) and 1% L-glutamine in a humidified incubator with 5% CO2 at 37 °C. For all imaging experiments low passage cells (P10-15) were seeded in 8-well chamber slides (Thistle, IB-80826) at a density of 15 000 cells in 250 μL of media.
Stock solutions were diluted to the stated concentrations in cell culture medium for incubation with fibroblasts. The equivalent amount of DMSO (<0.5% total volume) was added to controls for comparison. For nuclear visualisation cells were counterstained for 10 minutes with Hoechst 33342 diluted in cell culture media (1 μL mL^–1, Thermo Fisher, UK). For non-live imaging, cells were fixed in cold 4% paraformaldehyde for 10 min at room temperature and rinsed with PBS. For live-cell colocalization studies, cells were incubated with Ir-PYR for 12 hours prior to counterstaining with Hoechst 33342, and either LysoTracker-green DND-26 (L7528, Thermo Fisher, UK), or CYTO-ID Autophagy detection kit 2.0 (175–0050, Enzo Life Sciences, UK), as per the manufacturer's instructions. Briefly, LysoTracker was diluted in cell culture media to a final concentration of 200 nM and left for 15 min at 37 °C. […]

A short description of data set [4]: Longer term stability in water by UV-vis absorption spectra. It is filed as physicochemical. On the procedure: Our previous studies on Ir(III) complexes have shown that the use of substituted, cyclometalated quinoxaline ligands can impart red luminescence characteristics.[25] Firstly, the UV-vis absorption and emission spectral characteristics of Ir-PYR were determined. […] By inference, ligand-centred transitions are assumed to dominate below 350 nm, with both quinoxaline and bipyridine located π → π* contributing to the spectrum. At 350–450 nm it is likely that spin-allowed metal-to-ligand (5d-to-π*) charge transfers (^1MLCT) are present, with a weaker (ε < 1000 M^–1 cm^–1) shoulder feature at 450–600 nm, which is presumably due to a spin forbidden (S0 → T1) ^3MLCT absorption. […] To assess longer term stability in water, UV-vis absorption spectra of an aqueous solution (stored at 25 °C in light) of Ir-CMYC were recorded at 0, 24, 48 and 72 h (Fig. S4, ESI ^†).

Data set [5] can be described thus: Freeze-thaw stability of DMSO stock solutions. It counts as physicochemical. To be noted: 10 mM stock in DMSO stored at –20 °C.
Data set [6] relates to human fibroblast cells. The data set is described as follows: Immunocytochemistry with cell membrane permeabilisation (retention of red emission). It is filed as cell-based. To be noted: fluorescence microscopy imaging. The source says: To investigate whether the NLS was cleaved off Ir-CMYC prior to translocation to the nucleus, an immunoassay was trialled using an antibody raised against c-Myc.

“Also recorded” adds a separate entry of the source.

Consider “PAAKRVKLD [Ir-CMYC, NLS peptide … functionalised at N-terminus with cyclometalated iridium(III) quinoxaline/bipyridine complex]”, for which the “K (fitted equilibrium constant, binding to FS DNA)” value in data set [1] is reported as 4.5 ± 1.0 103 M-1. Further, the “cytotoxicity” value in data set [2] (5–100 μM, 18 h incubation, resazurin) is on record as “No cytotoxicity was observed; also recorded: essentially non-toxic”. Besides, the “toxicity: changes in cellular morphology or mitochondrial activity” value in data set [2] (24 hours after incubation, resazurin cell death assay) is recorded as “no (or minimal) toxicity”. Moreover, the “uptake / staining at 1–5 μM” value in data set [3] (1–5 μM, 18 h, confocal microscopy) was “No uptake or staining”. Moreover, the “concentration giving good cell uptake and nuclear localisation” value in data set [3] (18–24 h incubation, confocal, co-localisation with Hoechst 33342, n = 2) lay within 80 to 100 µM. The “staining at 20–50 μM” value in data set [3] (20–50 μM, 18 h, confocal microscopy) is reported as “weak punctate staining”. In addition, the “UV-vis absorption spectra at 0, 24, 48 and 72 h (chemical stability in water)” value in data set [4] (aqueous solution stored at 25 °C in light, read-out UV-vis absorption) is recorded as “superimposable”. Further, the “solubility in water” value in data set [4] (inferred from superimposable UV-vis spectra of aqueous solution over 72 h, 25 °C) is listed as “excellent solubility”. Further, the “effect of 3 freeze–thaw cycles on compound signal” value in data set [5] is reported as “did not appear to reduce the compound signal”. In data set [6], the “red emission in cells after immunocytochemistry procedure which permeabilises the cell membrane” value is “no longer evident”.

For the origin of these results see article PMC7069228, “Targeted cell imaging properties of a deep red luminescent iridium(III) complex conjugated with a c-Myc signal peptide” (Chemical Science, 2020).
